Measurements published in patent US20250163038A1, “CBL-B MODULATORS AND USES THEREOF” (Nimbus Clio, Inc., priority 2021, published 2025).

How the values were obtained:
[1] = tested on: Jurkat (clone E6-1) cells with NFAT luciferase reporter; test: Jurkat reporter assay (NFAT Luciferase); format: cell-based; settings: Homo sapiens; Jurkat NFAT luciferase reporter cells, anti-CD3 stimulation, 6 hr; read-out: Jurkat NFAT EC50
[2] = target: Recombinant human Cbl-b (aa 36-427) (Homo sapiens, UniProt Q13191); test: Cbl-b Biochemical Assay (TR-FRET); settings: read-out: TR-FRET hCbl-b IC50
Sequence of Recombinant human Cbl-b (aa 36-427) (Q13191 36-427): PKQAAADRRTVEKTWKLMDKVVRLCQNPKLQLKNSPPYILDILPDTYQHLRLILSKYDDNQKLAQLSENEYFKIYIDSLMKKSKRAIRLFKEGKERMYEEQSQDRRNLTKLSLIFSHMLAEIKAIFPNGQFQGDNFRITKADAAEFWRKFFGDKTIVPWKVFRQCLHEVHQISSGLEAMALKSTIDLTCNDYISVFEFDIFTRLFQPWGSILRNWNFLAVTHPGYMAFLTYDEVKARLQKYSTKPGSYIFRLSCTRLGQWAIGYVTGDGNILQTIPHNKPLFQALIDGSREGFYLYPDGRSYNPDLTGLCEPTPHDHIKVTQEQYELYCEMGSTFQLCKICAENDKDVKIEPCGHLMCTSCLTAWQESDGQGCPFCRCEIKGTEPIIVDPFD

[3] = target: T1, Recombinant human c-Cbl (aa 47-435) (Homo sapiens, UniProt P22681); test: c-Cbl Biochemical Assay (TR-FRET); settings: hc-Cbl Biochemical Assay (TR-FRET); read-out: TR-FRET hcCbl IC50
T1 sequence (P22681 47-435): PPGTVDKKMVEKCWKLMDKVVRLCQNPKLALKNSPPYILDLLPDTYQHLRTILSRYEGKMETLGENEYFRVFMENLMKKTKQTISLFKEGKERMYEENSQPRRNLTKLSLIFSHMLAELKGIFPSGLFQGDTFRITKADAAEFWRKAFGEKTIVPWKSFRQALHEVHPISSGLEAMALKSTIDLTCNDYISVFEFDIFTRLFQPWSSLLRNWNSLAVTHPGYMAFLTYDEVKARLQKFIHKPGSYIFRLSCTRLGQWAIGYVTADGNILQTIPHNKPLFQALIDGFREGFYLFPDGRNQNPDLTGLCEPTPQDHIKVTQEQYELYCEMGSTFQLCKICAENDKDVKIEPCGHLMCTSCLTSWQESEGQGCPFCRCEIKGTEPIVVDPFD

COCCCNCc1cc(OC)c2oc(-c3cccc(-c4ccc(F)cc4-c4nncn4C)c3)nc2c1 [FY-1, N-((2-(4′-Fluoro-2′-(4-methyl-4H-1,2,4-triazol-3-yl)-[1,1′-biphenyl]-3-yl)-7-methoxybenzo[d]oxazol-5-yl)methyl)-3-methoxypropan-1-amine] showed an EC50 [1] of 1000 to 10000 nM, an IC50 [2] of under 200 nM and an IC50 [3] of 200 to 1000 nM.
Cn1cnnc1-c1cc(F)ccc1-c1cccc(-c2cn3cc(CO)ccc3n2)c1 [FZ-5, (2-(4′-Fluoro-2′-(4-methyl-4H-1,2,4-triazol-3-yl)-[1,1′-biphenyl]-3-yl)imidazo[1,2-a]pyridin-6-yl)methanol] showed an EC50 [1] of 10000 to 50000 nM, an IC50 [2] of 1000 to 10000 nM and an IC50 [3] of 10000 to 50000 nM.
For COc1cc(CNCC2(O)CCC2)cc2nc(-c3cccc(-c4ccc(F)cc4-c4nncn4C)c3)oc12 [GA-1, 1-((((2-(4′-Fluoro-2′-(4-methyl-4H-1,2,4-triazol-3-yl)-[1,1′-biphenyl]-3-yl)-7-methoxybenzo[d]oxazol-5-yl)methyl)amino)methyl)cyclobutan-1-ol], the EC50 [1] was under 200 nM, the IC50 [2] was under 200 nM and the IC50 [3] was under 200 nM.
Cn1cnnc1-c1cc(F)ccc1-c1cccc(-c2nc3cc(CNCC4COC4)cc(C(F)(F)F)c3o2)c1 [GB-2, 1-(2-(4′-Fluoro-2′-(4-methyl-4H-1,2,4-triazol-3-yl)-[1,1′-biphenyl]-3-yl)-7-(trifluoromethyl)benzo[d]oxazol-5-yl)-N-(oxetan-3-ylmethyl)methanamine] gave an EC50 [1] of under 200 nM, an IC50 [2] of under 200 nM and an IC50 [3] of under 200 nM.
Cn1cnnc1-c1cc(F)ccc1-c1cccc(-c2nc3cc(CNC4CCC4)cc(C(F)(F)F)c3o2)c1 [GC-2, N-((2-(4′-Fluoro-2′-(4-methyl-4H-1,2,4-triazol-3-yl)-[1,1′-biphenyl]-3-yl)-7-(trifluoromethyl)benzo[d]oxazol-5-yl)methyl)cyclobutanamine] showed an EC50 [1] of under 200 nM, an IC50 [2] of under 200 nM and an IC50 [3] of under 200 nM.
In the case of CCOCCNCc1cc(OC)c2oc(-c3cccc(-c4ccc(F)cc4-c4nncn4C)c3)nc2c1 [GD-1, 2-Ethoxy-N-((2-(4′-fluoro-2′-(4-methyl-4H-1,2,4-triazol-3-yl)-[1,1′-biphenyl]-3-yl)-7-methoxybenzo[d]oxazol-5-yl)methyl)ethan-1-amine], the EC50 [1] is reported as 200 to 1000 nM, the IC50 [2] is reported as under 200 nM and the IC50 [3] is reported as 200 to 1000 nM.
In the case of COc1cc(CNCCOC(C)C)cc2nc(-c3cccc(-c4ccc(F)cc4-c4nncn4C)c3)oc12 [GE-2, N-((2-(4′-Fluoro-2′-(4-methyl-4H-1,2,4-triazol-3-yl)-[1,1′-biphenyl]-3-yl)-7-methoxybenzo[d]oxazol-5-yl)methyl)-2-isopropoxyethan-1-amine, formic Acid], the EC50 [1] is reported as 1000 to 10000 nM, the IC50 [2] is reported as under 200 nM and the IC50 [3] is reported as 200 to 1000 nM.
COc1cc(CN[C@@H](C)C2CCC2)cc2nc(-c3cccc(-c4ccc(F)cc4-c4nncn4C)c3)oc12 [GF-2, (S)-1-Cyclobutyl-N-((2-(4′-fluoro-2′-(4-methyl-4H-1,2,4-triazol-3-yl)-[1,1′-biphenyl]-3-yl)-7-methoxybenzo[d]oxazol-5-yl)methyl)ethan-1-amine] showed an EC50 [1] of under 200 nM, an IC50 [2] of under 200 nM and an IC50 [3] of under 200 nM.
Work on COc1cc(CNCCC2CCC2)cc2nc(-c3cccc(-c4ccc(F)cc4-c4nncn4C)c3)oc12 [GG-2, 2-Cyclobutyl-N-((2-(4′-fluoro-2′-(4-methyl-4H-1,2,4-triazol-3-yl)-[1,1′-biphenyl]-3-yl)-7-methoxybenzo[d]oxazol-5-yl)methyl)ethan-1-amine] yielded an EC50 [1] of 200 to 1000 nM, an IC50 [2] of under 200 nM and an IC50 [3] of under 200 nM.
COc1cc(CNC2CCC2)cc2nc(-c3cccc(-c4ccc(F)cc4-c4nncn4C)c3)oc12 [GH-1, N-((2-(4′-Fluoro-2′-(4-methyl-4H-1,2,4-triazol-3-yl)-[1,1′-biphenyl]-3-yl)-7-methoxybenzo[d]oxazol-5-yl)methyl)cyclobutanamine] gave an EC50 [1] of 200 to 1000 nM, an IC50 [2] of under 200 nM and an IC50 [3] of 200 to 1000 nM.
With COc1cc(CN[C@@H]2CCC[C@]2(C)O)cc2nc(-c3cccc(-c4ccc(F)cc4-c4nncn4C)c3)oc12 [GI-2, (1S,2R)-2-(((2-(4′-Fluoro-2′-(4-methyl-4H-1,2,4-triazol-3-yl)-[1,1′-biphenyl]-3-yl)-7-methoxybenzo[d]oxazol-5-yl)methyl)amino)-1-methylcyclopentan-1-ol, Formic Acid] the EC50 [1] was 1000 to 10000 nM, the IC50 [2] was 200 to 1000 nM and the IC50 [3] was 200 to 1000 nM.
For COc1cc(CN[C@@H]2CCC[C@@]2(C)O)cc2nc(-c3cccc(-c4ccc(F)cc4-c4nncn4C)c3)oc12 [GJ-2, (1R,2R)-2-(((2-(4′-fluoro-2′-(4-methyl-4H-1,2,4-triazol-3-yl)-[1,1′-biphenyl]-3-yl)-7-methoxybenzo[d]oxazol-5-yl)methyl)amino)-1-methylcyclopentan-1-ol, Formic Acid], the EC50 [1] was 1000 to 10000 nM, the IC50 [2] was 200 to 1000 nM and the IC50 [3] was 200 to 1000 nM.
In the case of Cn1cnnc1-c1cc(F)ccc1-c1cccc(-c2nc3ccc(CN[C@@H]4CCC[C@@H]4O)cn3n2)c1 [GK-5, (1S,2R)-2-(((2-(4′-Fluoro-2′-(4-methyl-4H-1,2,4-triazol-3-yl)-[1,1′-biphenyl]-3-yl)-[1,2,4]triazolo[1,5-a]pyridin-6-yl)methyl)amino)cyclopentan-1-ol, Formic Acid], the EC50 [1] is reported as 1000 to 10000 nM, the IC50 [2] is reported as under 200 nM and the IC50 [3] is reported as 200 to 1000 nM.
Cn1cnnc1-c1cc(F)ccc1-c1cccc(-c2cn3cc(CN[C@@H]4CCC[C@@H]4O)ccc3n2)c1 [GL-2, (1S,2R)-2-(((2-(4′-fluoro-2′-(4-methyl-4H-1,2,4-triazol-3-yl)-[1,1′-biphenyl]-3-yl)imidazo[1,2-a]pyridin-6-yl)methyl)amino)cyclopentan-1-ol] gave an EC50 [1] of 10000 to 50000 nM, an IC50 [2] of 1000 to 10000 nM and an IC50 [3] of 1000 to 10000 nM.
Molecule COCCN(C)Cc1cc(OC)c2oc(-c3cccc(-c4ccc(F)cc4-c4nncn4C)c3)nc2c1 [GM-2, N-((2-(4′-Fluoro-2′-(4-methyl-4H-1,2,4-triazol-3-yl)-[1,1′-biphenyl]-3-yl)-7-methoxybenzo[d]oxazol-5-yl)methyl)-2-methoxy-N-methylethan-1-amine] has an EC50 [1] of 10000 to 50000 nM, an IC50 [2] of 200 to 1000 nM and an IC50 [3] of 1000 to 10000 nM.
For Cn1cnnc1-c1cc(F)ccc1-c1cccc(-c2cn3ccc(CO)cc3n2)c1 [GN-5, (2-(4′-Fluoro-2′-(4-methyl-4H-1,2,4-triazol-3-yl)-[1,1′-biphenyl]-3-yl)imidazo[1,2-a]pyridin-7-yl)methanol], the EC50 [1] was 10000 to 50000 nM, the IC50 [2] was 10000 to 50000 nM and the IC50 [3] was 10000 to 50000 nM.
Molecule Cn1cnnc1-c1cc(F)ccc1-c1cccc(-c2cn3ccc(CN[C@@H]4CCC[C@@H]4O)cc3n2)c1 [GO-2, (1S,2R)-2-(((2-(4′-Fluoro-2′-(4-methyl-4H-1,2,4-triazol-3-yl)-[1,1′-biphenyl]-3-yl)imidazo[1,2-a]pyridin-7-yl)methyl)amino)cyclopentan-1-ol] has an EC50 [1] of 200 to 1000 nM, an IC50 [2] of under 200 nM and an IC50 [3] of under 200 nM.
For Cn1cnnc1-c1cc(F)ccc1-c1cccc(-c2nc3cc(CN[C@@H]4C[C@H](O)C4(C)C)cc(C(F)(F)F)c3o2)c1 [GP-2, (1S,3R)-3-(((2-(4′-Fluoro-2′-(4-methyl-4H-1,2,4-triazol-3-yl)-[1,1′-biphenyl]-3-yl)-7-(trifluoromethyl)benzo[d]oxazol-5-yl)methyl)amino)-2,2-dimethylcyclobutan-1-ol, Formic Acid], the EC50 [1] was 200 to 1000 nM, the IC50 [2] was under 200 nM and the IC50 [3] was under 200 nM.
Cc1cc(CNCC2CCC2)cc2nc(-c3cccc(-c4ccc(F)cc4-c4nncn4C)c3)oc12 [GU-1, 1-Cyclobutyl-N-((2-(4′-fluoro-2′-(4-methyl-4H-1,2,4-triazol-3-yl)-[1,1′-biphenyl]-3-yl)-7-methylbenzo[d]oxazol-5-yl)methyl)methanamine] was tested, and the EC50 [1] was under 200 nM, the IC50 [2] was under 200 nM and the IC50 [3] was under 200 nM.
COCCNCc1cc(C)c2oc(-c3cccc(-c4ccc(F)cc4-c4nncn4C)c3)nc2c1 [GV-1, N-((2-(4′-Fluoro-2′-(4-methyl-4H-1,2,4-triazol-3-yl)-[1,1′-biphenyl]-3-yl)-7-methylbenzo[d]oxazol-5-yl)methyl)-2-methoxyethan-1-amine] was tested, and the EC50 [1] was 200 to 1000 nM, the IC50 [2] was under 200 nM and the IC50 [3] was 200 to 1000 nM.
With C[C@H](NCc1cc(C(F)(F)F)c2oc(-c3cccc(-c4ccc(F)cc4-c4nncn4C)c3)nc2c1)C1CCC1 [GW-2, (S)-1-Cyclobutyl-N-((2-(4′-fluoro-2′-(4-methyl-4H-1,2,4-triazol-3-yl)-[1,1′-biphenyl]-3-yl)-7-(trifluoromethyl)benzo[d]oxazol-5-yl)methyl)ethan-1-amine] the EC50 [1] was under 200 nM, the IC50 [2] was under 200 nM and the IC50 [3] was under 200 nM.
COc1cc(CN[C@H]2C[C@@H](O)C2)cc2nc(-c3cccc(-c4ccc(F)cc4-c4nncn4C)c3)oc12 [GX-1, (1S,3S)-3-(((2-(4′-Fluoro-2′-(4-methyl-4H-1,2,4-triazol-3-yl)-[1,1′-biphenyl]-3-yl)-7-methoxybenzo[d]oxazol-5-yl)methyl)amino)cyclobutan-1-ol] was tested, and the EC50 [1] was 1000 to 10000 nM, the IC50 [2] was under 200 nM and the IC50 [3] was 200 to 1000 nM.
COc1cc(CN[C@H]2C[C@H](O)C2)cc2nc(-c3cccc(-c4ccc(F)cc4-c4nncn4C)c3)oc12 [GY-1, (1R,3R)-3-(((2-(4′-Fluoro-2′-(4-methyl-4H-1,2,4-triazol-3-yl)-[1,1′-biphenyl]-3-yl)-7-methoxybenzo[d]oxazol-5-yl)methyl)amino)cyclobutan-1-ol] was tested, and the EC50 [1] was 10000 to 50000 nM, the IC50 [2] was 200 to 1000 nM and the IC50 [3] was 1000 to 10000 nM.
